# Results: patent US5747507A, “Cardio-protective agent” (priority 1992, dated 1998)
# Values joined by “and” are separate entries in the source; they are usually repeats but may differ in a detail not shown here. Equal values may be shown once.
# Assays:
# [1] = tested on: endothelin-induced myocardial infarction; assay: Inhibitory effect on endothelin-induced myocardial infarction: creatine kinase activity in rabbit plasma; type: in vivo, Japanese White rabbits
# Excerpt: (§1) Inhibitory effect on endothelin-induced myocardial infarction
# (§2) The inhibitory effect of the cardio-protective agent of the present invention on endothelin-induced myocardial infarction was examined in the following manner.
# (§3) The animals used in the examination were Japanese White rabbits each weighing 2.0 to 3.1 kg, which were divided into two groups, i.e., a first group consisting of 40 rabbits and a second group consisting of 13 rabbits. The hydrochloride of the above-mentioned compound (1) was dissolved in distilled water, and the resultant solution was orally administered to each of 10 rabbits of the first group in an amount of 3.0 mg/kg (body weight). In the same manner as mentioned above, diltiazem and nicorandil were individually, orally administered to each of another 10 rabbits of the first group. As a control, distilled water was orally administered to each of the remaining 10 rabbits of the first group.
# (§4) With respect to the rabbits of the second group, the above-prepared aqueous solution of the hydrochloride of compound (1) was orally administered to each of 7 rabbits in the same manner as mentioned above, and as a control, distilled water was orally administered to each of the remaining 6 rabbits.
# (§5) Fifteen minutes after the administration, 1.2 nmol/kg (body weight) of endothelin (manufactured and sold by Peptide Institute, Japan) was injected into the auricular vein of each of the above rabbits of the first and second groups, thereby inducing myocardial infarction. With respect to the rabbits of the first and second groups, the degree of myocardial infarction was evaluated by rabbit electrocardiogram and by measuring the activity of enzymes leaked into the rabbit plasma, respectively, as follows.
# (§6) With respect to each of the rabbits of the second group, the blood was collected using a heparinized syringe just before and thirty minutes after the intravenous administration of endothelin. The collected blood was subjected to centrifugation using a cooling centrifuge (CR20B2, manufactured and sold by Hitachi Corp., Japan), to thereby separate plasma. […]
# [2] = literature; cited from earlier work
# isolated hearts [3] = assay: Inhibitory effect on myocardial cell injury caused by ischemia/reperfusion (2): leaked lactate dehydrogenase activity, isolated hearts (Langendorff method); set-up: species or system rats; details: for Lactate dehydrogenase activity, before ischemia / Lactate dehydrogenase activity, 10 min after initiation of reperfusion: mean values; for Activities of the leaked enzymes (in words): lactate dehydrogenase and creatine kinase, ischemia/reperfusion
# Excerpt: (§7) Hearts excised from male Wistar rats (approximately six-week old) were perfused with the Krebs-Heiseleit solution according to the Langendorff method [Tamura and Fujii, "Yakurigaku Jikkenho (Experimental Methods in Pharmacology)", pp. 176-177, 1990, published by Kyodo-isho Publishing Co., Ltd., Japan; and Yamada, Kubota et al., "Yakurigaku Jisshu (Pharmacological Practice)", pp. 79-81, 1979, published by Kodansha Scientific Co., Ltd., Japan]. After the isolated hearts were allowed to stabilize, the flowing of the perfusate was temporarily stopped, and the isolated hearts were allowed to be in an ischemic state for 40 minutes. Subsequently, reperfusion was conducted for 40 minutes.
# (§8) Inhibitory effect on myocardial cell injury caused by ischemia/reperfusion (2)
# (§9) In the same manner as in Example 2, hearts excised from rats were perfused in the Krebs-Henseleit solution in accordance with the Langendorff method. After the isolated hearts were allowed to stabilize, the flowing of the perfusate was temporarily stopped, and the isolated hearts were allowed to be in an ischemic state for 20 minutes. Subsequently, reperfusion was conducted for 60 minutes. As activities of the leaked enzymes, the lactate dehydrogenase activity and […] activity were examined with respect to each of the samples using an autoanalizer (Super Z 818, manufactured and sold by NITTEC Co., Ltd., Japan). The aqueous solutions of the hydrochlorides of compounds (1) and (83) were individually introduced to and perfused in a perfusion circuit with reperfusate simultaneously with the initiation of the reperfusion under the conditions as shown in Table 4. As a control, physiological saline was perfused with the reperfusate in the same manner as mentioned above. The above-mentionedactivities of the enzymes leaked into the perfusate and reperfusate were, respectively, measured before the ischemia and 10 minutes after the initiation of reperfusion.
# vascular smooth muscle = details: literature; cited from earlier work
# [4] = tested on: endothelin-induced myocardial infarction; assay: Inhibitory effect on endothelin-induced myocardial infarction: lactate dehydrogenase activity in rabbit plasma; type: in vivo, Japanese White rabbits
# Excerpt: as §1, §2, §3, §4, §5, §6
# isolated hearts [5] = assay: Inhibitory effect on myocardial cell injury caused by ischemia/reperfusion (1): coronary artery flow of isolated hearts (Langendorff method); set-up: species or system male Wistar rats; details: for Coronary flow change (% based on pre-ischemic values): 40 min after initiation of reperfusion; for Lowering of coronary artery flow (in words): ischemia/reperfusion; for Bradycardia and cardiac arrest (in words): perfused isolated hearts
# Excerpt: Inhibitory effect on myocardial cell injury caused by ischemia/reperfusion (1)
# as §7
# Hydrochlorides of compounds (1) and (83) mentioned above were individually dissolved in distilled water, and the resultant aqueous solutions of the hydrochlorides of compounds (1) and (83) were individually introduced to and perfused in a perfusion circuit with the reperfusate for 5 minutes simultaneously with the initiation of reperfusion. In the same manner as mentioned above, diltiazem as a comparative agent and physiological saline as a control were individually perfused with the reperfusate. The perfusion conditions of the aqueous solutions of the hydrochlorides of compounds (1) and (83), diltiazem and physiological saline are shown in Table 3.
# With respect to each of the test agents, the coronary artery flow was measured just before the ischemia, i.e., the stopping of the perfusion, and 40 minutes after the initiation of reperfusion using an electromagnetic flow probe FF-030P (manufactured and sold by Nippon Koden Corp., Japan).
# [6] = tested on: endothelin-induced myocardial infarction; assay: Inhibitory effect on endothelin-induced myocardial infarction: T-wave elevation in rabbit electrocardiogram; type: in vivo, Japanese White rabbits; details: 3.0 mg/kg oral; for T-wave elevation: 15 min before endothelin 1.2 nmol/kg i.v., 3 min after endothelin, mean values
# Excerpt: as §1, §2, §3, §5
# With respect to each of the rabbits of the first group, the rabbit electrocardiogram was taken just before and 3 minutes after the injection of endothelin, according to the standard limb lead II induction method [Ozawa, Training of Electrocardiogram, p. 24-32, 1984, Chugai Igaku Co., Ltd., Japan), and T-wave elevation was measured.
# isolated hearts [7] = assay: Inhibitory effect on myocardial cell injury caused by ischemia/reperfusion (2): leaked creatine kinase activity, isolated hearts (Langendorff method); set-up: species or system rats; details: mean values
# Excerpt: as §7, §8, §9
# [8] = literature; cited from earlier work; remark: listed apart in the source
# [9] = literature; cited from earlier work; remark: listed apart in the source
# heart = details: in vivo; cited from earlier work
# Japanese White rabbits = assay: Toxicity in oral administration; type: in vivo; details: 30 mg/kg (body weight)
# Excerpt: Toxity in oral administration
# [10] = plasma, 3.0 mg/kg oral, 30 min after i.v. endothelin, mean values
# [11] = plasma, 3.0 mg/kg oral, just before i.v. endothelin, mean values
SMILES,Effect on blood flow [2],"Lactate dehydrogenase activity, before ischemia (isolated hearts [3]; 10^-5 M group) [IU/min]","Lactate dehydrogenase activity, 10 min after initiation of reperfusion (isolated hearts [3]; 10^-5 M) [IU/min]",Activities of the leaked enzymes (in words) (isolated hearts [3]),Effect on vascular smooth muscle (vascular smooth muscle),Coronary flow change (% based on pre-ischemic values) (isolated hearts [5]; 3 × 10^-6 M) [%],Lowering of coronary artery flow (in words) (isolated hearts [5]),Bradycardia and cardiac arrest (in words) (isolated hearts [5]),Inhibition of T-wave elevation (in words) [6],T-wave elevation [6],"Creatine kinase activity, before ischemia (isolated hearts [7]; 10^-5 M group) [IU/min]","Creatine kinase activity, 10 min after initiation of reperfusion (isolated hearts [7]; 10^-5 M) [IU/min]",Antihypertensive effect [8],Cerebral protective effect [9],further results
"O=S(=O)(c1cccc2cnccc12)N1CCCNCC1 [compound (1), 1-(5-isoquinolinesulfonyl)homopiperazine]",increasing effect on blood flow,21.3,575.3,greatly inhibited,relaxing effect on vascular smooth muscle,70,greatly inhibited,neither bradycardia nor cardiac arrest occurred,can remarkably inhibit the T-wave elevation,0.00 mV and 0 mV,18.6,901.5,antihypertensive effect,cerebral protective effect,"Effect on creatine kinase activity in plasma (in words) ([1]; caused by i.v. endothelin): had an inhibitory effect; Creatine kinase activity, 30 min after administration [1, 10]: 163.9 IU/1; Creatine kinase activity, just before administration [1, 11]: 114.6 IU/1; Lactate dehydrogenase activity, before ischemia (isolated hearts [3]; 10^-6 M group): 22.8 IU/min; Lactate dehydrogenase activity, 10 min after initiation of reperfusion (isolated hearts [3]; 10^-6 M): 732.8 IU/min; Effect on lactate dehydrogenase activity in plasma (in words) ([4]; caused by i.v. endothelin): had an inhibitory effect; Lactate dehydrogenase activity, 30 min after administration [4, 10]: 52.1 IU/1; Lactate dehydrogenase activity, just before administration [4, 11]: 29.7 IU/1; Creatine kinase activity, before ischemia (isolated hearts [7]; 10^-6 M group): 26.6 IU/min; Creatine kinase activity, 10 min after initiation of reperfusion (isolated hearts [7]; 10^-6 M): 1159.8 IU/min"
"COc1ccc([C@@H]2Sc3ccccc3N(CCN(C)C)C(=O)[C@@H]2OC(C)=O)cc1 [Diltiazem, reference compound]",,,,,,54,,bradycardia and cardiac arrest occurred,T-wave elevation was not inhibited,0.46 mV,,,,,Side effect on atrioventricular conducting system (heart): atrioventricular conducting system of the patient is depressed; Side effect on heart rate (heart): decrease in heart rate; Bradycardia (isolated hearts [5]; 1 × 10^-5 M): bradycardia; Cardiac arrest (isolated hearts [5]; 1 × 10^-5 M): cardiac arrest
O=C(NCCO[N+](=O)[O-])c1cccnc1 [Nicorandil],,,,,,,,,T-wave elevation was not inhibited,0.58 mV,,,,,
"O=S(=O)(c1cccc2c(O)nccc12)N1CCCNCC1 [compound (83), 1-(1-hydroxy-5-isoquinolinesulfonyl)homopiperazine]",increasing effect on blood flow,1.2,487.0,greatly inhibited,relaxing effect on vascular smooth muscle,,greatly inhibited,neither bradycardia nor cardiac arrest occurred,,,17.4,881.5,antihypertensive effect,cerebral protective effect,Coronary flow change (% based on pre-ischemic values) (isolated hearts [5]; 1 × 10^-5 M): 58%; Coronary flow change (% based on pre-ischemic values) (isolated hearts [5]; 3 × 10^-5 M): 61%; Number of rabbits died/Number of rabbits tested (Japanese White rabbits): 0/5
"N=C(N)NCCNS(=O)(=O)c1cccc2cnccc12 [(104), N-(2-guanidinoethyl)-5-isoquinolinesulfonamide]",increasing effect on blood flow,,,,relaxing effect on vascular smooth muscle,,,,,,,,,,
